Results taken from article PMC7179312 (Antimicrobial Agents and Chemotherapy, 2020).

How the values were obtained:
KPC-2 L169P = biological target: T1, KPC-2 L169P (Klebsiella pneumoniae, UniProt Q9F663, L168P); assay: Steady-state Ki with nitrocefin as substrate (method of Waley); assay type: biochemical; settings: NCF substrate, 10 min preincubation, 37°C
T1 construct: 6xHis (C); made in house; host or cells: E. coli (pET28a construct; BL21(DE3) pLys is named only for wild type and D179Y)

[1] = tested on: P. aeruginosa PAM1154 carrying KPC-2::D179Y (PAM4639); assay: Checkerboard potentiation of antibiotic activity by BLIs; assay type: cell-based, Pseudomonas aeruginosa; settings: for Beta-lactam MIC in the presence of BLI: PAM4639 KPC-2 D179Y
KPC-2 [2] = biological target: T2, KPC-2 (Klebsiella pneumoniae, UniProt Q9F663); settings: NCF hydrolysis; cited from earlier work
T2 construct: 6xHis (C); made in house; host or cells: E. coli BL21(DE3) pLys, pET28a

KPC-2 [3] = biological target: T2, KPC-2; assay: IC50 of inhibition of ceftazidime hydrolysis; assay type: biochemical
Method: (§1) Enzymes were mixed with BLIs at concentrations varying from 160 to 0.0027 μM in buffer A and incubated for 10 min, and 100 μM (for wild-type KPC-2) or 10 μM (for the D179Y mutant) CFTZ was subsequently added. Substrate cleavage profiles were recorded at 260 nm every 10 s for 10 min. Initial rates of reaction were calculated and exported to Prism software to calculate IC50s using the “dose-response – inhibition, variable slope (four parameters)” equation.

KPC-2 D179Y = biological target: T3, KPC-2 D179Y (Klebsiella pneumoniae, UniProt Q9F663, D178Y); assay: IC50 of inhibition of ceftazidime hydrolysis; assay type: biochemical
T3 construct: 6xHis (C); made in house; host or cells: E. coli BL21(DE3) pLys, pET28a
Method: as §1

[4] = tested on: P. aeruginosa PAM1154 carrying pUCP24-KPC-2 (PAM4135); assay: MIC, CLSI broth microdilution; assay type: cell-based; settings: Pseudomonas aeruginosa; PAM4135, pUCP24-KPC-2; drug alone
Excerpt: The effects of KPC mutations on resistance to various antibiotics were investigated. For these studies, pUCP24 plasmids carrying wild-type and mutant blaKPC-2 genes as well as the pUCP24 vector were transformed into PAM1154, an efflux-deficient strain of Pseudomonas aeruginosa. In this host, the effect of β-lactamases on β-lactam MIC is amplified due to the slowed uptake of β-lactams across the low-permeability outer membrane without interference by efflux of either β-lactams or BLIs. Consequently, this host allows detection of β-lactamase activity (as an MIC increase) of low-catalytic-efficiency enzymes that rely heavily on the low permeability of the outer membrane. Using the strain that lacks efflux pumps ensures no interference from efflux in interpreting results. We next evaluated the steady-state protein expression levels in bacterial cells.
For microbiological studies, wild-type blaKPC-2 and its mutant variants were cloned into the shuttle vector pUCP24. Resulting plasmids were transformed in the efflux-deficient strain of P. aeruginosa PAM1154 using selection on 15 μg/ml of gentamicin. Using a strain of P. aeruginosa as opposed to E. coli as a host for various cloned genes was based on the following consideration. As well documented elsewhere ([41]), P. aeruginosa has a low-permeability outer membrane; consequently, the effect of β-lactamases on MIC is amplified in P. aeruginosa compared to that in E. coli due to the slowed uptake of β-lactams. Thus, this host is appropriate to detect β-lactamase activity (as an MIC increase) of low-catalytic-efficiency enzymes that rely heavily on low permeability of the outer membrane. […] MICs were determined using the Clinical and Laboratory Standards Institute (CLSI) broth microdilution method as described in CLSI document M07-A11 ([42]). […] BLI potency was defined as PV50 (PV, potentiation value). PV50 is the minimal concentration of a BLI that is required to reduce the antibiotic MIC to the middle of the MIC range (E50) where the highest MIC is the MIC for a KPC-producing strain with no inhibitor added and the lowest MIC is the MIC for the vector-only strain, corresponding to the complete inhibition of KPC. E50 is calculated as the square root of the product of the antibiotic MICs for the KPC-producing and the vector-only strains.

[5] = tested on: P. aeruginosa PAM1154 carrying pUCP24 vector (PAM4175); assay: Checkerboard potentiation of antibiotic activity by BLIs; assay type: cell-based, Pseudomonas aeruginosa

## O=C(O)C[C@@H]1CC[C@H](NC(=O)Cc2cccs2)B(O)O1 [Vaborbactam, vaborbactam]
KPC-2 L169P
  Ki: 190 ± 20 nM
[1]; PAM4639 KPC-2::D179Y, potentiation of cefepime
  PV50: 1 µg/mL
[1]; PAM4639 KPC-2::D179Y, potentiation of ceftazidime
  PV50: 1 µg/mL
[1]; PAM4639 KPC-2::D179Y, potentiation of piperacillin
  PV50: 1 µg/mL
KPC-2 [2]
  Kd: 8 nM
  k2/K: 5.5 ± 0.5 × 10^3 M^−1 s^−1
  k−2: 4.3 ± 0.6 × 10^−5 s^−1
KPC-2 [3]
  IC50: 940 ± 20 nM
KPC-2 D179Y
  IC50: 1900 ± 300 nM
[4]
  MIC: > 256 µg/mL

## CO/N=C(\C(=O)N[C@@H]1C(=O)N2C(C(=O)[O-])=C(C[N+]3(C)CCCC3)CS[C@H]12)c1csc(N)n1 [Cefepime, cefepime]
[5]; avibactam 4 μg/ml
  Antibiotic MIC with avibactam at 4 μg/ml: 0.125 µg/mL
[5]; no BLI
  Antibiotic MIC, No BLI: 0.125 µg/mL
[5]; vaborbactam 8 μg/ml
  Antibiotic MIC with vaborbactam at 8 μg/ml: 0.125 µg/mL
[1]; PAM4639 KPC-2::D179Y, avibactam 4 μg/ml
  Antibiotic MIC with avibactam at 4 μg/ml: 2 µg/mL
[1]; PAM4639 KPC-2::D179Y, no BLI
  Antibiotic MIC, No BLI: 32 µg/mL
[1]; PAM4639 KPC-2::D179Y, vaborbactam 8 μg/ml
  Antibiotic MIC with vaborbactam at 8 μg/ml: 0.25 µg/mL
[1]; avibactam 0 µg/ml
  Beta-lactam MIC in the presence of BLI: 32 µg/mL
[1]; avibactam 0.008 µg/ml
  Beta-lactam MIC in the presence of BLI: 32 µg/mL
[1]; avibactam 0.031 µg/ml
  Beta-lactam MIC in the presence of BLI: 32 µg/mL
[1]; avibactam 0.06 µg/ml
  Beta-lactam MIC in the presence of BLI: 32 µg/mL
[1]; avibactam 0.5 µg/ml
  Beta-lactam MIC in the presence of BLI: 16 µg/mL
[1]; avibactam 1 µg/ml
  Beta-lactam MIC in the presence of BLI: 4 µg/mL
[1]; avibactam 2 µg/ml
  Beta-lactam MIC in the presence of BLI: 4 µg/mL
[1]; avibactam 4 µg/ml
  Beta-lactam MIC in the presence of BLI: 2 µg/mL
[1]; avibactam 8 µg/ml
  Beta-lactam MIC in the presence of BLI: 1 µg/mL
[1]; avibactam 16 µg/ml
  Beta-lactam MIC in the presence of BLI: 0.5 µg/mL
[1]; vaborbactam 0 µg/ml
  Beta-lactam MIC in the presence of BLI: 32 µg/mL
[1]; vaborbactam 0.008 µg/ml
  Beta-lactam MIC in the presence of BLI: 32 µg/mL
[1]; vaborbactam 0.031 µg/ml
  Beta-lactam MIC in the presence of BLI: 32 µg/mL
[1]; vaborbactam 0.06 µg/ml
  Beta-lactam MIC in the presence of BLI: 32 µg/mL
[1]; vaborbactam 0.5 µg/ml
  Beta-lactam MIC in the presence of BLI: 8 µg/mL
[1]; vaborbactam 1 µg/ml
  Beta-lactam MIC in the presence of BLI: 1 µg/mL
[1]; vaborbactam 2 µg/ml
  Beta-lactam MIC in the presence of BLI: 0.5 µg/mL
[4]
  MIC: 256 µg/mL
